Data on 5 compounds can be found in patent US12084430B2, “Tricyclic urea compounds as JAK2 V617F inhibitors” (Incyte Corporation, priority 2022, dated 2024).

Series [1] concerns the target TRKA (Homo sapiens, UniProt P04629). Kind of series: TRKA enzymatic assay. It counts as biochemical. The settings on record: 1 mM ATP. The method, boiled down:
(§1)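 The reaction mix held 0.58 nM TRKA, 1 mM ATP and 500 nM biotinylated TK substrate in 50 mM HEPES pH 7.0 with 10 mM MgCl2, 1 mM DTT and 0.5% DMSO, run 60 min at room temperature. Product was detected by TR-FRET as the 665/620 nm ratio. IC50 was fitted from % control activity versus log concentration, using DMSO-only and no-ATP wells as controls.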

Series [2] deals with TRKA. Kind of series: TRKA enzymatic assay. It counts as biochemical. The method, boiled down: as §1
Series [3] can be described thus: In vitro intrinsic clearance. It counts as in vitro ADME. The settings on record: human liver microsomes, 1 μM. An outline of the steps:
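Compound at 1 μM was incubated at 37° C with human liver microsomes (0.5 mg protein/mL) and 2 mM NADPH in pH 7.4 phosphate buffer, sampled at 0–30 min and analysed by LC-MS/MS. CLint was derived from t1/2 of depletion and scaled to human hepatic clearance with the well-stirred model (Q 20 mL·min^−1·kg^−1).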
Background: Microsomes from liver hold many membrane-bound enzymes, among them those of drug oxidation.

Series [4] relates to STAT5 (Tyr694) phosphorylation in SET-2 cells. Kind of series: STAT5 (Tyr694) phosphorylation cell based assay. Conditions: Homo sapiens, pSTAT5, 2 hours, read-out: SET2 IC50. An outline of the steps:
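SET-2 cells (7×10^6 cells/mL, RPMI 10% FBS, 0.5% DMSO) treated with compound 2 h at 37 °C, then lysed 90 min at RT. Phospho-STAT5 (Tyr694) detected by HTRF sandwich antibodies after 24 h at RT, 665/620 ratio. IC50 from percent control activity versus log concentration, DMSO and high-concentration control compound as references.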

Sequence of TRKA (Homo sapiens, UniProt P04629) (P04629 33-796, species assumed): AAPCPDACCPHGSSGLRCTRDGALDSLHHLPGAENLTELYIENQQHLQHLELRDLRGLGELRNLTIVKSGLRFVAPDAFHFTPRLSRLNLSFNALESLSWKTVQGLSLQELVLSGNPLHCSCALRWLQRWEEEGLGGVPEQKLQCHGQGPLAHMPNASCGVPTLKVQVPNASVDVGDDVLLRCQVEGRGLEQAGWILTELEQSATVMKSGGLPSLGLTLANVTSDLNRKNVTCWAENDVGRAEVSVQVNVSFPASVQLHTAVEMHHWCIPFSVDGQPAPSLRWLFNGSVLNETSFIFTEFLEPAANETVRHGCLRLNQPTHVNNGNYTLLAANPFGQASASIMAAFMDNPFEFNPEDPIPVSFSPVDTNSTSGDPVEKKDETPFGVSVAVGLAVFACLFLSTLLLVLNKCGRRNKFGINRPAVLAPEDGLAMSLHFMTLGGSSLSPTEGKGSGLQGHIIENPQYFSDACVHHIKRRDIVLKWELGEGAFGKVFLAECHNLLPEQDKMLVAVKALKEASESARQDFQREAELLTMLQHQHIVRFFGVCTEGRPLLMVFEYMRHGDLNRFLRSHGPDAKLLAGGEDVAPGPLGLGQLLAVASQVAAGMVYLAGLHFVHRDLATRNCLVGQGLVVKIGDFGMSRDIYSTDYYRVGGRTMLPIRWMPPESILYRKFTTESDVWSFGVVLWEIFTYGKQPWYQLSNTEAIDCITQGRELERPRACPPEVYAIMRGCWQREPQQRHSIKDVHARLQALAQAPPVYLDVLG

Usually IC50 stands for the point on the concentration scale where inhibition reaches its midpoint. As to `[2H]C([2H])([2H])n1cc(-c2[nH]c3ncc4c(c3c2-c2ccc3c(c2)COC3(C)C)n([C@@H]2CC[C@@H](NC(=O)OC)C2)c(=O)n4C([2H])([2H])[2H])c(F)n1` [Example 8, Methyl ((1R,3R)-3-(8-(1,1-dimethyl-1,3-dihydroisobenzofuran-5-yl)-7-(3-fluoro-1-(methyl-d3)-1H-pyrazol-4-yl)-3-(methyl-d3)-2-oxo-3,6-dihydroimidazo[4,5-d]pyrrolo[2,3-b]pyridin-1(2H)-yl)cyclopentyl)carbamate], the half-inhibitory concentration (IC50) at TRKA [1] is more than 2500 nM; in series [4], not above 300 nM. Moreover, the “Selectivity TRKA/JH2 V617F” value with TRKA [2] is “****** (selectivity of >12500-fold)”. Further, the h-IntCL result in series [3] is listed as “‡ (h-IntCL of <0.7 L/h/kg)”.

Take `[2H]C([2H])([2H])n1cc(-c2[nH]c3ncc4c(c3c2-c2ccc3c(cnn3CC(F)F)c2)n([C@@H]2CC[C@@H](NC(=O)OC)C2)c(=O)n4C([2H])([2H])[2H])c(F)n1` [Example 14, Methyl ((1R,3R)-3-(8-(1-(2,2-difluoroethyl)-1H-indazol-5-yl)-7-(3-fluoro-1-(methyl-d3)-1H-pyrazol-4-yl)-3-(methyl-d3)-2-oxo-3,6-dihydroimidazo[4,5-d]pyrrolo[2,3-b]pyridin-1(2H)-yl)cyclopentyl)carbamate]: the IC50 at TRKA [1] is more than 2500 nM; in series [4], not above 300 nM. Besides, the “Selectivity TRKA/JH2 V617F” value in the series on TRKA [2] is listed as “****** (selectivity of >12500-fold)”. In addition, the h-IntCL entry in series [3] was “‡ ‡ (h-IntCL of ≥0.7 L/h/kg to ≤1 L/h/kg)”.

`[2H]C([2H])([2H])n1ncc2cc(-c3c(-c4cn(C([2H])(C([2H])([2H])[2H])C([2H])([2H])[2H])nc4F)[nH]c4ncc5c(c34)n([C@@H]3CC[C@@H](NC(=O)OC)C3)c(=O)n5C([2H])([2H])[2H])ccc21` [Example 21, Methyl ((1R,3R)-3-(7-(3-fluoro-1-(propan-2-yl-d7)-1H-pyrazol-4-yl)-3-(methyl-d3)-8-(1-(methyl-d3)-1H-indazol-5-yl)-2-oxo-3,6-dihydroimidazo[4,5-d]pyrrolo[2,3-b]pyridin-1(2H)-yl)cyclopentyl)carbamate]: the IC50 at TRKA [1] was more than 2500 nM; in series [4], not above 300 nM. Moreover, the “Selectivity TRKA/JH2 V617F” value in the series on TRKA [2] is reported as “****** (selectivity of >12500-fold)”. The h-IntCL result in series [3] is recorded as “‡ ‡ (h-IntCL of ≥0.7 L/h/kg to ≤1 L/h/kg)”.

Regarding `COC(=O)N[C@@H]1CC[C@@H](n2c(=O)n(C)c3cnc4[nH]c(-c5cn(C)nc5OC)c(-c5ccc(OC)c(F)c5)c4c32)C1` [Example 4, Methyl ((1R,3R)-3-(8-(3-fluoro-4-methoxyphenyl)-7-(3-methoxy-1-methyl-1H-pyrazol-4-yl)-3-methyl-2-oxo-3,6-dihydroimidazo[4,5-d]pyrrolo[2,3-b]pyridin-1(2H)-yl)cyclopentyl)carbamate], the IC50 was more than 2500 nM against TRKA [1] and 300 to 800 nM in series [4]. The “Selectivity TRKA/JH2 V617F” value in the series on TRKA [2] is given as “***** (selectivity of >5000-fold to ≤12500-fold)”. In addition, the h-IntCL result in series [3] is “‡ (h-IntCL of <0.7 L/h/kg)”.

`[2H]C([2H])([2H])n1c(=O)n([C@@H]2CC[C@@H](NC(=O)OC)C2)c2c3c(-c4ccc5c(c4)COC5(C)C)c(-c4cn(CC(F)F)nc4F)[nH]c3ncc21` [Example 12, Methyl ((1R,3R)-3-(7-(1-(2,2-difluoroethyl)-3-fluoro-1H-pyrazol-4-yl)-8-(1,1-dimethyl-1,3-dihydroisobenzofuran-5-yl)-3-(methyl-d3)-2-oxo-3,6-dihydroimidazo[4,5-d]pyrrolo[2,3-b]pyridin-1(2H)-yl)cyclopentyl)carbamate]: the IC50 on TRKA [1] is more than 2500 nM; in series [4], not above 300 nM. In the series on TRKA [2], the “Selectivity TRKA/JH2 V617F” value is recorded as “****** (selectivity of >12500-fold)”. Further, the h-IntCL entry in series [3] is “‡ ‡ (h-IntCL of ≥0.7 L/h/kg to ≤1 L/h/kg)”.
